The results in this text go back to patent US10973815B2, “Delta opioid agonist mu opioid antagonist compositions and methods for treating Parkinsons disease” (priority 2016, dated 2021).

The subject of series [1] is MPTP-lesioned macaques with established motor complications. Kind of series: Monotherapy with DPI-289 in MPTP-lesioned macaques with established motor complications due to L-DOPA. The class given is in vivo, Macaca fascicularis. The procedure: This activity is measured by an infra-red movement detector and captures all movement, normal and abnormal. Data are mean±s.e.m. […] N=8 for all treatment groups. */**/*** represents P<0.05, P<0.01 or P<0.001 cf vehicle-treatment; 2-way RM ANOVA (FIG. 2A) or 1-way RM-ANOVA with Holm-Sidak's Multiple Comparison test (FIGS. 2B and C). […].
Parkinsonian disability is scored by a trained neurologist who is blinded to treatment allocation but is trained to differentiate normal from abnormal movements and is able to distinguish diminution of Parkinsonian disability from dyskinetic (abnormal) movements. Data are mean±s.e.m. […] N=8 for all treatment groups. */**/*** represents P<0.05, P<0.01 or P<0.001 cf. vehicle-treatment; 2-way RM ANOVA (FIG. 6A) or 1-way RM-ANOVA with Holm-Sidak's Multiple Comparison test (FIGS. 6 B and C).
Eight cynomolgus monkeys (Macaca fascicularis, 6.4-6.8 years of age, 2.8-4.2 kg were used in this study. Animals were housed two or three per cage in the same housing room. The housing rooms were subject to a 12 hour light-dark cycle (lights on 7 a.m.), temperature 20-25° C. in a room containing only animals of the same sex. Fresh fruit, primate pellets and water were available ad libitum other than at times of overnight fasting prior to PK or behavioral assessment days.
The animals were rendered parkinsonian via once-daily subcutaneous injection of MPTP (0.2 mg/kg), administered for between 9 and 12 days, until the appearance of parkinsonism symptoms. After this time, a parkinsonian syndrome reached a moderate to marked level, over approximately 30 days, and stabilized. […] L-DOPA naïve animals have received no L-DOPA and those showing established motor complication have received L-DOPA in an amount 25 mg/kg orally twice daily for at least 2 months. L-DOPA is given with the decarboxylase inhibitor benserazide (as Madopar™).

Another series deals with 6-OHDA-lesioned rats. As to the kind of experiment: Rotations in unilateral 6-OHDA-lesioned rats. The class given is in vivo, rat. From the text:
N=6 rats per group, Newman-Keuls post hoc test was used for statistical significance.
N=8 per group, Newman-Keuls post hoc test for statistical significance.
In a rat model of PD, focal injection of the neurotoxin 6-hydroxydopamine (6-OHDA) was used to create a unilateral lesion of the nigrostriatal dopamine pathway. When challenged with dopamine agonists, rats rotate in the direction contralateral to the lesion and the number of rotations may be used as a measure of anti-parkinsonian efficacy.

Take `CCN(CC)C(=O)c1ccc(C(c2cccc(O)c2)N2C[C@@H](C)N(Cc3cccc(F)c3)C[C@@H]2C)cc1` (stereo partly drawn) [DPI-289, 4-((alpha-R)-alpha-((2S,5R)-2,5-Dimethyl-4-(3-fluorobenzyl)-1-piperazinyl)-3-hydroxybenzyl)-N,N-diethylbenzamide]: the bradykinesia result in series [1] (20 mg/kg) is given as “significant change only in the first hour”. Further, the ON-time result in series [1] (20 mg/kg oral) is on record as “only limited on-time”. Also, in series [1] (20 mg/kg, two to three hours after dosing), the parkinsonian disability entry is “significant reduction in parkinsonian disability”. In addition, in series [1] (1, 10 and 20 mg/kg, two to four hours after dosing), the postural impairment result is listed as “significant reduction in postural impairment”. Also, the range of movement result in series [1] (1, 10 or 20 mg/kg, three to four hours after dose) was “increase in the range of movement”. In addition, the alertness result in series [1] (10 or 20 mg/kg, two to four hours after dosing) is listed as “significant reduction in deficits in alertness”. Also, the dyskinesia entry in series [1] (L-DOPA primed animals, 1, 10, 20 mg/kg) was “does not cause dyskinesia”. The “duration of effect on parkinsonian disability” value in series [1] (single dose of 20 mg/kg) is recorded as “about 4 hours”. Further, in series [1] (single oral dose of 10 or 20 mg/kg), the “movement activity / motor impairment” value is “significantly alleviated motor impairment for 1 to 4 hours”. In addition, the “contralateral and ipsilateral rotations” value in the series with 6-OHDA-lesioned rats (30 mg/kg) was “also increased rotations but the effect on contralateral rotations appeared to be diminished”; in the series with 6-OHDA-lesioned rats (1-10 mg/kg i.p.), “dose-related increase in both contralateral and ipsilateral rotations”. The L-DOPA-induced contralateral rotations result in the series with 6-OHDA-lesioned rats (co-administered with sub-optimal dose of L-DOPA (25 mg/kg i.p.)) was “marked potentiation of contralateral rotations”.
